This is an account of results in ChEMBL document CHEMBL3856252, “Truncated Autoinducing Peptides as Antagonists of Staphylococcus lugdunensis Quorum Sensing” (J Med Chem, 2016).

Where a SMILES comes first, the peptide text is derived from it.

What is called IC50 is the concentration needed to halve the response being measured.

Test [1] can be described thus: Inhibition of Staphylococcus aureus RN6390B quorum sensing system AgrC-1 using cephalosporin/nitrocefin as substrate by P3 reporter assay. In general terms: Reporter assays use an easily measured gene product as a stand-in for the process of interest.
Test [2] is described as follows: Competitive inhibition of Staphylococcus aureus SA502A quorum sensing system AgrC-2 after 24 hrs in presence of mouse IgG2a by YFP reporter gene assay.
Test [3] in a line: Competitive inhibition of Staphylococcus aureus MW2 quorum sensing system AgrC-3 after 24 hrs in presence of mouse IgG2a by YFP reporter gene assay.
The nature of test [4]: Competitive inhibition of Staphylococcus aureus quorum sensing system AgrC-3 by colorimetric analysis.
The nature of test [5]: Competitive inhibition of Staphylococcus aureus RN9222 quorum sensing system AgrC-1 by colorimetric analysis.
Test [6] can be described thus: Competitive inhibition of Staphylococcus aureus RN9372 quorum sensing system AgrC-2 by colorimetric analysis.

For `CC[C@H](C)[C@@H]1NC(=O)[C@H](Cc2ccccc2)NC(=O)[C@H](CC(=O)O)NC(=O)[C@@H](NC(=O)[C@@H](NC(=O)[C@H](CO)NC(=O)[C@@H](N)Cc2ccc(O)cc2)[C@@H](C)O)CSC(=O)[C@H](CCSC)NC1=O` (HELM PEPTIDE1{Y.S.T.C.D.F.I.M}$PEPTIDE1,PEPTIDE1,4:R3-8:R2$$$V2.0), in test [1], the IC50 stood at 20 nM.

Regarding `CC(=O)N[C@H]1CSC(=O)[C@H](Cc2ccccc2)NC(=O)[C@H](Cc2ccc(O)cc2)NC(=O)[C@H](CO)NC(=O)[C@H](C)NC1=O` (HELM PEPTIDE1{[ac].C.A.S.Y.F}$PEPTIDE1,PEPTIDE1,2:R3-6:R2$$$V2.0), the IC50 in test [2] came to 160 nM; in test [3], 13 nM.

As for `CC(=O)N[C@H]1CSC(=O)[C@H](Cc2ccccc2)NC(=O)[C@H](Cc2ccc(O)cc2)NC(=O)[C@H](C)NC(=O)[C@H](CC(N)=O)NC1=O` (HELM PEPTIDE1{[ac].C.N.A.Y.F}$PEPTIDE1,PEPTIDE1,2:R3-6:R2$$$V2.0), the IC50 in test [4] turned out to be 40 nM; in test [5], 380 nM; in test [6], 420 nM.
